The values below come from patent US20110230450A1, “PLATELET-ACTIVATING FACTOR (PAF) ANALOGS AND USES THEREOF” (Vascular Biogenics Lts, priority 2007, published 2011).

Assay [1] has as its system collagen-induced arthritis. Put plainly: Collagen-induced arthritis (CIA), arthritis score. The assay is classed as in vivo, DBA/1 male mice. The following applies: 0.4 mg/kg by gavage daily from day 22 to day 39, CIA mouse model (FIG. 9). The method, then: Collagen-induced arthritis (CIA) induction: DBA/1 male mice were immunized to induce arthritis by a collagen injection containing complete Freund's adjuvant (CFA) in the base of the tail (day 0) and a booster shot in the flank (day 21). Mice were followed for arthritis development until day 39. Administration by gavage of the tested compounds and control substances began on day 22 and was carried out on a daily basis (6 times per week).
The severity of arthritis was assessed as follows:
Each paw is scored on a scale of 0-4 for the degree of swelling, erythema, and deformity of the joints (maximum score 16 per animal) as follows [Brackertz et al., 1977]:
0=normal 1=slight erythema and/or swelling of the ankle or wrist or toes 2=moderate erythema and/or swelling of the ankle or wrist 3=severe erythema and/or swelling of the ankle or wrist (or moderate in combination of all toes) 4=complete erythema and swelling of toes or fingers and ankle or wrist, and inability to bend the ankle or wrist

In assay [2] the test system is MOG induced EAE. Nature of the assay: MOG peptide-induced experimental autoimmune encephalomyelitis (EAE), clinical score. The assay is classed as in vivo, mice. As to conditions: from 5 days before to 5 days after MOG 35-55 immunization (FIG. 7). The method, then:
Mice: Female 8-10 week old […] mice were purchased from Harlan Laboratories (Israel). EAE (experimental autoimmune encephalomyelitis) induction: Mice were immunized subcutaneously with an emulsion containing 1.5 mg/ml MOG peptide 35-55 ([…]) (Sigma-Aldrich, Rehovot, Israel) and 2.5 mg/ml complete Freund's adjuvant (CFA), 100 μl in each flank. Pertussis toxin (500 ng in 500 μl PBS) was administered intra-peritoneally immediately and 48 hours after immunization. For prevention of EAE, CI-302 or PBS was given orally once a day for 10 consecutive days beginning 5 days before immunization. The severity of EAE was assessed utilizing clinical scores determined as follows: 0=normal, 1=limp tail, 2=weakness of hind limbs, 3=hind leg paralysis, 4=hind and fore leg paralysis, 5=moribund or death

Assay [3] concerns tyrosine phosphorylation in peritoneal macrophages. Nature of the assay: Western blot of phosphotyrosine in peritoneal macrophages. The class given is cell-based. As to conditions: thioglycolate-stimulated peritoneal macrophages, 20 μg/ml, 10 minutes (FIG. 10). The method, then: Western blot: Thioglycolate-stimulated peritoneal macrophages were treated for 10 minutes with 20 μg/ml of CI-302. 20 μg/ml of phosphatidylcholine or solvent served as negative controls, whereas CI-201 served as a positive control. Whole cell lysates were resolved by SDS-PAGE on 10% Tris/HCl denaturing gel, transferred to nitrocellulose membranes and blotted with anti-phosphotyrosine antibody. Blotting with anti-ERK1/2 antibody served as a loading control.
(In general: A western blot detects proteins with antibodies after separation by electrophoresis.)

In assay [4] the test system is human platelets. Put plainly: Platelet aggregation assay. As to conditions: human platelet-rich plasma, 5 minutes; CI-302 in escalating concentrations of up to 1 mM; PAF 0.125-0.25 μM (FIGS. 2-4). The class given is cell-based. On the procedure: Platelet aggregation assay: Platelet-rich plasma was prepared from citrated whole human blood by centrifugation (200 g for 20 minutes). The final platelet concentration was adjusted to 2×10^8 platelets/ml with autologous plasma. CI-302 and PAF dissolved in PBS were added to induce platelet activation while the platelet sample was stirred at 1,000 rpm at 37° C. Aggregation was recorded for 5 minutes using an AggRAM 4-channel aggregometer (AggRAM aggregation Remote Analyzer Module; Helena Laboratories).

Assay [5] deals with IL-12/23 p40. Put plainly: IL-12/23 p40 production by peptidoglycan-activated BMDCs (ELISA). The class given is cell-based, mouse. The following applies: BMDCs activated with 10 μg/ml peptidoglycan. On the procedure:
(§1) Generation of bone-marrow derived dendritic cells (BMDC's): Bone-marrow was flushed out with cold RPMI-1640 medium from mice femur and tibia. A cell suspension was prepared and erythrocytes were removed using red blood cell (RBC) lysis buffer (Beit Haemek, Israel). Cells were washed in phosphate buffer saline (PBS) (Beit Haemek, Israel), and incubated at 4° C. for 15 minutes in buffer containing PBS and 0.5% bovine serum albumin (BSA) with mouse B220 and CD90 microbeads (Miltenyi biotech, Bergisch Gladbach, Germany). Cells were then washed, resuspended in the same buffer, and depleted from B and T cells on a Midi-Macs separation unit through a LD or LS column (Miltenyi Biotech). The depleted cells were then counted, washed and seeded (10^6/ml) in medium containing RPMI-1640 medium, L-glutamine, β-mercaptoethanol, 10% fetal calf serum (FCS), antibiotics (penicillin, streptomycin) and 20 ng/ml of mouse granulocyte-macrophage colony-stimulating factor (GM-CSF) (Peprotech, Rehovot, Israel). Medium was replaced every other day and cells were used for subsequent experiments on days 5-6 post culturing.
Cytokine analysis: For the detection of cytokine production, supernatants from 24-hour post-treatment BMDCs were tested with Duoset ELISA kits for mouse IL12/23 p40 (R&D systems, Minneapolis, Minn.). […]
On the technique in general: An ELISA detects its analyte on a solid surface through an enzyme-linked reagent.

For assay [6], the system named is pro-inflammatory chemokines and cytokines in spinal cords. Put plainly: q-PCR for pro-inflammatory chemokines and cytokines in spinal cords of EAE mice. The assay is classed as in vivo. The following applies: 0.4 mg/kg oral, 28 days after immunization. On the procedure:
Preparation of RNA, cDNA and Quantitative Real Time PCR (Q-PCR): RNA was prepared from cells using an RNeasy mini kit (Qiagen, Valencia, Calif.). For cDNA preparation, 1 μg of RNA was combined with oligo-dT for 10 minutes at 70° C., and 1^St strand buffer, dithiothreitol (DTT), deoxynucleotides (dNTP) and super-script reverse transcriptase (SS-II) (Invitrogen, Carlsbad, Calif.) were then added for 50 minutes at 42° C. The reaction was ended by incubation for an additional 15 minutes at 70° C. All real time quantitative PCR (q-PCR) reactions were performed using LightCycler Taqman master (Roche Diagnostics, Mannheim, Germany) and the LightCycler (Roche). For tissue mRNA expression, total RNA was extracted from spinal cord using the RNeasy lipid tissue mini kit RNA. Ready sets of probe with primers for q-PCR were purchased from Applied Biosystems (Foster City, Calif.).
EAE (experimental autoimmune encephalomyelitis) induction: Mice were immunized subcutaneously with an emulsion containing 1.5 mg/ml MOG peptide 35-55 ([…]) (Sigma-Aldrich, Rehovot, Israel) and 2.5 mg/ml complete Freund's adjuvant (CFA), 100 μl in each flank. Pertussis toxin (500 ng in 500 μl PBS) was administered intra-peritoneally immediately and 48 hours after immunization. For prevention of EAE, CI-302 or PBS was given orally once a day for 10 consecutive days beginning 5 days before immunization.

The test system of assay [7] is IL-12/23 p40. Put plainly: q-PCR for p40 mRNA in peptidoglycan-activated CD11c+ BMDCs. The class given is cell-based, mouse. The following applies: 20 μg/ml for 1 hour, then 10 μg/ml peptidoglycan for 2, 3 and 4 hours, normalized to GAPDH (FIG. 6). The method, then:
as §1, with “Medium was replaced every other day and cells were used for subsequent experiments on days 5-6 post culturing.” left out
Preparation of RNA, cDNA and Quantitative Real Time PCR (Q-PCR): RNA was prepared from cells using an RNeasy mini kit (Qiagen, Valencia, Calif.). […] All real time quantitative PCR (q-PCR) reactions were performed using LightCycler Taqman master (Roche Diagnostics, Mannheim, Germany) and the LightCycler (Roche). […]

Take `CCCCCCCCCCCCCCCCOC[C@H](COP(=O)([O-])OCC[N+](C)(C)C)OC(=O)CCC` [CI-302, 1-hexadecyl-2-butyroyl-sn-glycero-3-phosphocholine]: in assay [1], the “arthritis severity (mean score)” value is recorded as “decreased arthritis severity throughout the study period”. Moreover, the “protection against EAE development (mean clinical score)” value in assay [2] (0.04 mg/kg orally once a day) is “noticeable though milder protection”; in assay [2] (0.4 mg/kg orally once a day) it was “close to complete protection”. Moreover, the level of phosphotyrosine result in assay [3] is recorded as “strongly reduced the level of phosphotyrosine”. In assay [4], the platelet aggregation entry is given as “no platelet aggregation was observed”. Besides, the “maximal reduction of p40 production” value in assay [5] (1 hour pre-incubation, supernatants 24 hours, highest CI-302 concentration tested (FIG. 5A)) was 45%. Further, in assay [5] (escalating CI-302 concentrations, ELISA at 24 hours (FIG. 5A)), the “production of p40 by activated BMDCs” value is given as “significantly inhibited production of p40 by activated BMDCs in a dose-dependent manner”. Further, the “p40 gene transcription in spinal cord” value in assay [6] (relative to PBS-treated group (FIG. 8A)) is reported as “reduced”. Also, the “p35 gene transcription in spinal cord” value in assay [6] (relative to PBS-treated group (FIG. 8B)) is on record as “reduced”. The “CCL2 (MCP-1) transcription in spinal cord” value in assay [6] (relative to PBS-treated group (FIG. 8C)) is given as “reduced”. Besides, in assay [6] (relative to PBS-treated group (FIG. 8D)), the “IFN-γ transcription in spinal cord” value is “reduced”. Moreover, in assay [6] (relative to PBS-treated group (FIG. 8E)), the “TNF-α transcription in spinal cord” value was “reduced”. Further, in assay [6] (relative to control mice (FIG. 8F)), the “CD4 mRNA levels in spinal cord” value was “considerably lower”. Moreover, in assay [7], the “p40 mRNA expression” value was “inhibited p40 mRNA expression considerably”.
As for `CCCCCCCCCCCCCCCCOC[C@H](COP(=O)([O-])OCC[N+](C)(C)C)OC(C)=O` [PAF, 1-hexadecyl-2-acetoyl-sn-glycero-3-phosphocholine, reference compound], the platelet aggregation result in assay [4] is recorded as “substantial platelet aggregation”.
With “L-a-phosphatidylcholine [PC, reference compound]”, in assay [7], the “p40 mRNA expression” value is listed as “little or no effect”.
